# Results reported in ChEMBL document CHEMBL1201862, “PubChem BioAssay data set” (2004).
#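 Grown in 96-well plates, cells were treated for 48 hours with each compound at five concentrations. Insufficient inhibition: endpoint recorded as highest concentration tested. At the GI50, growth is halved.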 Active and inactive are the calls of the source. Rule as the data show it: active = GI50 up to about 1.1 µM and inactive = higher.
# Tests used:
# Test in all cases: inhibition of tumour cell growth, NCI panel, 48 h
# U-251 = system: U-251
# HOP-92 = system: HOP-92
# Malme-3M = system: Malme-3M
# NCI-H23 = system: NCI-H23
# KM12 = system: KM12
# MDA-MB-435 = system: MDA-MB-435
# K562 = system: K562
# T47D = system: T47D
# NCI/ADR-RES = system: NCI/ADR-RES
# NCI-H460 = system: NCI-H460
# MDA-MB-231 = system: MDA-MB-231
# COLO 205 = system: COLO 205
# SN12C = system: SN12C
# IGROV-1 = system: IGROV-1
# PC-3 = system: PC-3
# LOX IMVI = system: LOX IMVI
# OVCAR-5 = system: OVCAR-5
# M14 = system: M14
# SR = system: SR
# SK-OV-3 = system: SK-OV-3
# BT-549 = system: BT-549
# 786-0 = system: 786-0
# RPMI-8226 = system: RPMI-8226
# A498 = system: A498
# MCF7 = system: MCF7
# TK-10 = system: TK-10
# NCI-H522 = system: NCI-H522
# MOLT-4 = system: MOLT-4
# ACHN = system: ACHN
# Hs-578T = system: Hs-578T
# MDA-N = system: MDA-N
# CAKI-1 = system: CAKI-1
# OVCAR-4 = system: OVCAR-4
# OVCAR-8 = system: OVCAR-8
# SK-MEL-5 = system: SK-MEL-5
# HOP-62 = system: HOP-62
# DU-145 = system: DU-145
# HCT-116 = system: HCT-116
# SF-295 = system: SF-295
# EKVX = system: EKVX
# SW-620 = system: SW-620
# OVCAR-3 = system: OVCAR-3
# SNB-19 = system: SNB-19
# SF-268 = system: SF-268
# SF-539 = system: SF-539
# NCI-H226 = system: NCI-H226
# SK-MEL-2 = system: SK-MEL-2
# A549 = system: A549
# SK-MEL-28 = system: SK-MEL-28
# SNB-75 = system: SNB-75
# HL-60 = system: HL-60
# HT-29 = system: HT-29
# RXF 393 = system: RXF 393
# UACC-62 = system: UACC-62
# HCT-15 = system: HCT-15
# UO-31 = system: UO-31
# UACC-257 = system: UACC-257
# CCRF-CEM = system: CCRF-CEM
smiles,measurement,setting,value
Cc1ccc(C2(C)CC/C(=N/N=C3/CCC(C)(c4ccc(C)c(C)c4)c4cc(C)c(C)cc43)c3cc(C)c(C)cc32)cc1C (stereo unspecified),GI50,U-251,> 100 µM (inactive)
same,GI50,HOP-92,> 100 µM (inactive)
same,GI50,Malme-3M,> 100 µM (inactive)
same,GI50,NCI-H23,> 100 µM (inactive)
same,GI50,KM12,> 100 µM (inactive)
same,GI50,MDA-MB-435,> 100 µM (inactive)
same,GI50,K562,> 100 µM (inactive)
same,GI50,T47D,> 100 µM (inactive)
same,GI50,NCI/ADR-RES,> 100 µM (inactive)
same,GI50,NCI-H460,> 100 µM (inactive)
same,GI50,MDA-MB-231,> 100 µM (inactive)
same,GI50,COLO 205,> 100 µM (inactive)
same,GI50,SN12C,> 100 µM (inactive)
same,GI50,IGROV-1,> 100 µM (inactive)
same,GI50,PC-3,> 100 µM (inactive)
same,GI50,LOX IMVI,> 100 µM (inactive)
same,GI50,OVCAR-5,> 100 µM (inactive)
same,GI50,M14,> 100 µM (inactive)
same,GI50,SR,> 100 µM (inactive)
same,GI50,SK-OV-3,> 100 µM (inactive)
same,GI50,BT-549,> 100 µM (inactive)
same,GI50,786-0,> 100 µM (inactive)
same,GI50,RPMI-8226,> 100 µM (inactive)
same,GI50,A498,> 100 µM (inactive)
same,GI50,MCF7,> 100 µM (inactive)
same,GI50,TK-10,> 100 µM (inactive)
same,GI50,NCI-H522,> 100 µM (inactive)
same,GI50,MOLT-4,> 100 µM (inactive)
same,GI50,ACHN,> 100 µM (inactive)
same,GI50,Hs-578T,> 100 µM (inactive)
same,GI50,MDA-N,> 100 µM (inactive)
same,GI50,CAKI-1,> 100 µM (inactive)
same,GI50,OVCAR-4,> 100 µM (inactive)
same,GI50,OVCAR-8,> 100 µM (inactive)
same,GI50,SK-MEL-5,> 100 µM (inactive)
same,GI50,HOP-62,> 100 µM (inactive)
same,GI50,DU-145,> 100 µM (inactive)
same,GI50,HCT-116,> 100 µM (inactive)
same,GI50,SF-295,> 100 µM (inactive)
same,GI50,EKVX,> 100 µM (inactive)
same,GI50,SW-620,> 100 µM (inactive)
same,GI50,OVCAR-3,> 100 µM (inactive)
same,GI50,SNB-19,> 100 µM (inactive)
same,GI50,SF-268,> 100 µM (inactive)
same,GI50,SF-539,> 100 µM (inactive)
same,GI50,NCI-H226,> 100 µM (inactive)
same,GI50,SK-MEL-2,> 100 µM (inactive)
same,GI50,A549,> 100 µM (inactive)
same,GI50,SK-MEL-28,> 100 µM (inactive)
same,GI50,SNB-75,> 100 µM (inactive)
same,GI50,HL-60,> 100 µM (inactive)
same,GI50,HT-29,> 100 µM (inactive)
same,GI50,RXF 393,> 100 µM (inactive)
same,GI50,UACC-62,> 100 µM (inactive)
same,GI50,HCT-15,> 100 µM
same,GI50,UO-31,> 100 µM (inactive)
CC(=O)OC12CC[N+]3(C)CCCCC3C1=Nc1ccccc12 (stereo unspecified),GI50,U-251,> 100 µM (inactive)
same,GI50,HOP-92,> 100 µM (inactive)
same,GI50,Malme-3M,> 100 µM (inactive)
same,GI50,NCI-H23,> 100 µM (inactive)
same,GI50,KM12,82.8 µM (inactive)
same,GI50,MDA-MB-435,> 100 µM (inactive)
same,GI50,K562,> 100 µM (inactive)
same,GI50,T47D,> 100 µM (inactive)
same,GI50,NCI/ADR-RES,> 100 µM (inactive)
same,GI50,NCI-H460,> 100 µM (inactive)
same,GI50,MDA-MB-231,> 100 µM (inactive)
same,GI50,COLO 205,61 µM (inactive)
same,GI50,SN12C,> 100 µM (inactive)
same,GI50,IGROV-1,> 100 µM (inactive)
same,GI50,PC-3,> 100 µM (inactive)
same,GI50,LOX IMVI,> 100 µM (inactive)
same,GI50,OVCAR-5,> 100 µM (inactive)
same,GI50,M14,> 100 µM (inactive)
same,GI50,SR,> 100 µM (inactive)
same,GI50,SK-OV-3,> 100 µM (inactive)
same,GI50,BT-549,> 100 µM (inactive)
same,GI50,786-0,> 100 µM (inactive)
same,GI50,RPMI-8226,> 100 µM (inactive)
same,GI50,A498,80.2 µM (inactive)
same,GI50,MCF7,> 100 µM (inactive)
same,GI50,TK-10,> 100 µM (inactive)
same,GI50,NCI-H522,> 100 µM (inactive)
same,GI50,MOLT-4,> 100 µM (inactive)
same,GI50,UACC-257,> 100 µM (inactive)
same,GI50,ACHN,> 100 µM (inactive)
same,GI50,Hs-578T,> 100 µM (inactive)
same,GI50,MDA-N,> 100 µM (inactive)
same,GI50,CAKI-1,> 100 µM (inactive)
same,GI50,OVCAR-4,> 100 µM (inactive)
same,GI50,OVCAR-8,> 100 µM (inactive)
same,GI50,SK-MEL-5,> 100 µM (inactive)
same,GI50,HOP-62,> 100 µM (inactive)
same,GI50,DU-145,> 100 µM (inactive)
same,GI50,HCT-116,> 100 µM (inactive)
same,GI50,SF-295,> 100 µM (inactive)
same,GI50,EKVX,17.4 µM (inactive)
same,GI50,SW-620,> 100 µM (inactive)
same,GI50,OVCAR-3,> 100 µM (inactive)
same,GI50,CCRF-CEM,> 100 µM (inactive)
same,GI50,SNB-19,> 100 µM (inactive)
same,GI50,SF-268,> 100 µM (inactive)
same,GI50,SF-539,> 100 µM (inactive)
same,GI50,NCI-H226,> 100 µM (inactive)
same,GI50,SK-MEL-2,> 100 µM (inactive)
same,GI50,A549,40.5 µM (inactive)
same,GI50,SK-MEL-28,> 100 µM (inactive)
same,GI50,SNB-75,> 100 µM (inactive)
same,GI50,HL-60,> 100 µM (inactive)
same,GI50,HT-29,63.8 µM (inactive)
same,GI50,RXF 393,> 100 µM (inactive)
same,GI50,UACC-62,> 100 µM (inactive)
same,GI50,HCT-15,> 100 µM
same,GI50,UO-31,> 100 µM (inactive)
C[C@]12CC[C@@H]3c4ccc(OCC(=O)O)cc4CC[C@H]3[C@@H]1CCC2=O,GI50,U-251,> 100 µM (inactive)
same,GI50,HOP-92,> 100 µM (inactive)
same,GI50,Malme-3M,> 100 µM (inactive)
same,GI50,NCI-H23,> 100 µM (inactive)
same,GI50,KM12,> 100 µM (inactive)
same,GI50,MDA-MB-435,> 100 µM (inactive)
same,GI50,T47D,> 100 µM (inactive)
same,GI50,NCI/ADR-RES,> 100 µM (inactive)
same,GI50,NCI-H460,> 100 µM (inactive)
same,GI50,MDA-MB-231,> 100 µM (inactive)
same,GI50,COLO 205,> 100 µM (inactive)
same,GI50,SN12C,> 100 µM (inactive)
same,GI50,IGROV-1,> 100 µM (inactive)
same,GI50,PC-3,> 100 µM (inactive)
same,GI50,LOX IMVI,> 100 µM (inactive)
same,GI50,OVCAR-5,> 100 µM (inactive)
same,GI50,M14,> 100 µM (inactive)
same,GI50,SR,> 100 µM (inactive)
same,GI50,SK-OV-3,> 100 µM (inactive)
same,GI50,BT-549,> 100 µM (inactive)
same,GI50,786-0,> 100 µM (inactive)
same,GI50,RPMI-8226,> 100 µM (inactive)
same,GI50,A498,> 100 µM (inactive)
same,GI50,MCF7,> 100 µM (inactive)
same,GI50,TK-10,> 100 µM (inactive)
same,GI50,NCI-H522,> 100 µM (inactive)
same,GI50,MOLT-4,15.1 µM (inactive)
same,GI50,UACC-257,> 100 µM (inactive)
same,GI50,ACHN,> 100 µM (inactive)
same,GI50,Hs-578T,> 100 µM (inactive)
same,GI50,MDA-N,> 100 µM (inactive)
same,GI50,CAKI-1,> 100 µM (inactive)
same,GI50,OVCAR-4,> 100 µM (inactive)
same,GI50,OVCAR-8,> 100 µM (inactive)
same,GI50,SK-MEL-5,> 100 µM (inactive)
same,GI50,HOP-62,> 100 µM (inactive)
same,GI50,DU-145,> 100 µM (inactive)
same,GI50,HCT-116,> 100 µM (inactive)
same,GI50,SF-295,> 100 µM (inactive)
same,GI50,EKVX,> 100 µM (inactive)
same,GI50,SW-620,> 100 µM (inactive)
same,GI50,OVCAR-3,> 100 µM (inactive)
same,GI50,CCRF-CEM,1.32 µM (inactive)
same,GI50,SNB-19,> 100 µM (inactive)
same,GI50,SF-268,> 100 µM (inactive)
same,GI50,SF-539,> 100 µM (inactive)
same,GI50,NCI-H226,> 100 µM (inactive)
same,GI50,SK-MEL-2,> 100 µM (inactive)
same,GI50,A549,> 100 µM (inactive)
same,GI50,SK-MEL-28,> 100 µM (inactive)
same,GI50,SNB-75,> 100 µM (inactive)
same,GI50,HL-60,0.13 µM (active)
same,GI50,HT-29,> 100 µM (inactive)
same,GI50,RXF 393,> 100 µM (inactive)
same,GI50,UACC-62,> 100 µM (inactive)
same,GI50,HCT-15,> 100 µM
same,GI50,UO-31,> 100 µM (inactive)
